Measurements taken from patent publication US20230270721A1, “INHIBITION OF BAX-MEDIATED CELL DEATH BY ELTROMBOPAG” (Albert Einstein College of Medicine, priority 2020, published 2023).

Columns and labels:
[1] = system: platelets of C57BL/6J mice; assay: In vivo mouse platelet experiments; details: ABT-263 25 mg/kg single dose, oral gavage, within 24 hr
Procedure: Wild type black mice strain C57BL/6J were treated with vehicle, ABT-263 (25 mg/kg, single dose), EO (100 mg/kg, then 3 hrs later 50 mg/kg), or a combination of ABT-263 and EO. EO was formulated in dH2O, and ABT-263 was formulated in 10% ethanol, 30% polyethylene glycol 400, and 60% Phosal 50 PG. Both ABT-263 and EO were administered by oral gavage. Blood samples were collected by submandibular bleed before treatment and 24 hours following treatment, and CBC was acquired. Percentage platelet protection was calculated as follows: % Platelet Protection = (100)(Px - mPABT)/(mPv - mPABT) where Px is the platelet count for a given mouse, mPv is the mean vehicle treated platelet count, and mPABT is the mean ABT-263 treated platelet count. Statistical analysis was performed using one-way ANOVA with select multiple comparisons as shown.
Finally, whether EO can rescue thrombocytopenia induced by the activity of navitoclax was evaluated in mice. The use of navitoclax is limited by on-target toxicity triggering BAK/BAX-mediated platelet apoptosis (Zhang, H. et al. Cell Death Differ 14, 943-951 (2007)). […] This EO effect is distinct from its capacity to stimulate platelet production by differentiation of the megakaryocyte precursors and progenitor cells, which requires 5 days to begin (Erickson-Miller, C. L. et al. Stem Cells 27, 424-430 (2009); Jenkins, J. M. et al. Blood 109, 4739-4741 (2007)).

[2] = target: T1, BAX (Homo sapiens, UniProt Q07812); assay: Competitive fluorescence polarization binding assay (FPA), BAX / FITC-BIM-SAHB; details: BAX 150 nM, FITC-BIM-SAHB 25 nM; read-out: IC50, competition of FITC-BIM-SAHB by FPA
T1 construct: Human full-length (1-192) wild-type BAX (Q07812); made in house; host or cells: E. coli BL21 (DE3) CodonPlus (DE3)-RIPL
T1 sequence (Q07812 whole entry): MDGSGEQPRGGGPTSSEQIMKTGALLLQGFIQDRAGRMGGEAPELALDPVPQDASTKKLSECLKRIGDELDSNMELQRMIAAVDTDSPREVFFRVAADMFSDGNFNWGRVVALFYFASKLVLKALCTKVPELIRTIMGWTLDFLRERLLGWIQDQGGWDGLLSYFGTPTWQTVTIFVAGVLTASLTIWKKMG
Procedure: Fluorescence polarization assays (FPA) were performed as previously described (Gavathiotis, E., et al. Nat Chem Biol 8, 639-645 (2012)). Direct binding isotherms of BIM-SAHB were measured by incubated FITC-BIM-SAHB (25 nM) with serial dilutions of full-length BAX alone or in the presence of 0.5 or 1 µM EO. Competition binding assays were performed by titrating ED into BAX (150 nM) and FITC-BIM-SAHB (25 nM). Measurements were taken at 10-minute intervals over 60 minutes on a TECAN F200 PRO microplate reader. Reported curves represent 10-minute time point. KD values and IC50 were determined using GraphPad Prism nonlinear fit four-parameter agonist or antagonist versus response with restraints for 100% and 0% bound calculated by the mP of saturated BAX + FITC-BIM-SAHB and FITC-BIM-SAHB alone.
To test this hypothesis, a competitive fluorescence polarization assay (FPA) (Gavathiotis, E., et al. Nat Chem Biol 8, 639-645 (2012)) based on the interaction between BAX and fluorescently-labeled stapled BIM-BH3 peptide (FITC-BIM-SAHB) was used (Gavathiotis, E., et al. Nature 455, 1076-1081 (2008)). […] The IC50 and KD are consistent with a competitive binding mechanism of EO displacing FITC-BIM-SAHB from the N-terminal trigger site of BAX.

[3] = target: T1, BAX; assay: Liposomal permeabilization (ANTS/DPX release) assay; format: biochemical; details: 50 nM BAX and 5 nM tBID; compared with EO
Procedure: Lipids (Avanti Polar Lipids) at the following ratio, phosphatidylcholine 48%, phosphatidylinositol 10%, dioleoyl phosphatidylserine 10%, phosphatidylethanolamine, 28%, and tetraoleoyl cardiolipin 4%, were mixed in a total of 1 mg, dried and resuspended in 10 mM HEPES, pH 7, 200 mM KCI, and 5 mM MgCl2 with 12.5 mM 8-aminonaphthalene-1,3,6-trisulfonic acid (ANTS) dye and 45 mM p-xylene-bis-pyridinium bromide (DPX) quencher (Molecular Probes) using a water bath sonicator. Liposomes were formed by extrusion of the suspension using Avanti Mini-Extruder (Cat # 610000) with polycarbonate membranes of 0.1 µm pore size (Avanti Polar Lipids). ANTS/DPX encapsulated liposomes were purified from non-encapsulated ANTS/DPX by gel filtration of a 10 mL CL2B-Sepharose (GE Healthcare Life Sciences) gravity-flow column. BAX (50-250 nM) was combined with tBID, BIM, and EO at the indicated concentrations to a volume of 90 µL. Reactions were initiated by the addition of […] of the encapsulated ANTS/DPX liposome stock. ANTS/DPX release was quantified based on the increase in fluorescence intensity that occurs when the ANTS fluorophore is separated from the DPX quencher upon release from the liposomes into solution. Fluorescence (λex = 355 nm and λem = 520 nm) was measured at 1 minute intervals at room temperature (22-25° C.) indicated using a Tecan Infinite M1000 plate reader. In the case of heat activation, reactions were set up as described in the absence of tBID or BIM, and experiments were recorded at 42° C. The percentage release of ANTS/DPX at any given time point was calculated as percentage release=((F-F0)/(F100-F0))(100), where F0 and F100 are baseline and maximal fluorescence, respectively. Triton X-100 (1%) was used to determine the maximum amount of liposomal release per assay and was set to 100%.
Next, EO’s capacity to modulate BAX activity was evaluated using liposomal release assays. […] Instead, EO was able to inhibit both tBID- and BIM BH3-mediated BAX activation (FIGS. 1E, 1F, and 1G). Inhibition of tBID-mediated BAX activation by EO was inversely proportional to the concentration of the tBID activator, consistent with competitive inhibition of BH3-activator binding.

Row | IC50 [2] [µM] | inhibition of BAX in liposomal release assays [3] | Structure (SMILES) | platelet loss [1]
1 |  |  | CC1(C)CCC(c2ccc(Cl)cc2)=C(CN2CCN(c3ccc(C(=O)NS(=O)(=O)c4ccc(N[C@H](CCN5CCOCC5)CSc5ccccc5)c(S(=O)(=O)C(F)(F)F)c4)cc3)CC2)C1 [navitoclax] | significant platelet loss
2 | > 5 | significantly diminished inhibition | COC(=O)c1cccc(-c2cccc(NN=C3C(=O)N(c4ccc(C)c(C)c4)N=C3C)c2O)c1 [EO-Methyl Ester, eltrombopag methyl ester] | 
